Data on five compounds can be found in patent publication US5734052A (Merrell Pharmaceuticals Inc., priority 1995, dated 1998).

As a reminder, the pKi is the Ki on a negative log10 scale, so that one unit is a factor of ten.

Structures are written as SMILES. pKi: −log10 of the molar value.

The target of one assay is T1, adenosine A-2 receptors (Rattus norvegicus, UniProt P30543).
T1 construct: tissue Charles River; host or cells: striatal membranes of young male rats (C-D strain)
Put plainly: Affinity for brain adenosine A-2 receptors ([3H]NECA competition, striatal membranes). The assay is classed as binding. The settings on record: rat brain striatum membranes, 1 μM CHA in tube addition, 25° C., 60 minutes, read-out: A2 Ki. As to the method:
Young male rats (C-D strain), obtained from Charles River, are killed by decapitation and the brain was removed. Membranes for ligand binding are isolated from rat brain striatum. The tissue is homogenized in 20 vol ice-cold 50 mM Tris-HCl buffer (pH 7.7) using a polytron (setting for 6 to 20 seconds). The homogenate is centrifuged at 50,000×g for 10 minutes at 4° C. The pellet is again homogenized in a polytron in 20 vol of buffer, and centrifuged as before. The pellet is finally resuspended in 40 vol of 50 mM Tris-HCl (pH 7.7) per gram of original wet weight of tissue.
Incubations are carried out at 25° C. for 60 minutes. Each tube is filtered through GF/B glass fiber filters using a vacuum. The filters are rinsed two times with 5 ml of the ice-cold buffer. […] The filters are counted by liquid scintillation spectrometry.
Specific binding of [3H]NECA is measured as the excess over blanks run in the presence of 100 μM 2-chloro-adenosine. Total membrane-bound radioactivity is about 2.5% of that added to the test tubes. […] Specific binding to membranes is about 50% of the total bound.

For another assay, the system named is adenosine receptor. The settings on record: in vivo; cited from earlier work.
For the next assay, the system named is A-1 receptors. The settings on record: in vitro, A-1 vs A-2; cited from earlier work.
Assay [1] concerns the target T2, Adenosine A-1 receptor (Rattus norvegicus, UniProt P25099).
T2 sequence (P25099 1-326): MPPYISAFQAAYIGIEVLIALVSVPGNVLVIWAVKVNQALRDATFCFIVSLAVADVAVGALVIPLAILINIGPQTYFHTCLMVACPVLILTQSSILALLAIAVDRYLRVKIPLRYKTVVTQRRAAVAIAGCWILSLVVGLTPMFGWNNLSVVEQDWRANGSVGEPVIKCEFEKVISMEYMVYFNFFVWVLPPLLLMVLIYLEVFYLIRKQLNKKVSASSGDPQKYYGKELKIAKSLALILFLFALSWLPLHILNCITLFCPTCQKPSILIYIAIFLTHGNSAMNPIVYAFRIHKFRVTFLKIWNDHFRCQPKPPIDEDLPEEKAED
The experiment in a line: Affinity for brain adenosine A-1 receptor binding sites ([3H]cyclohexyladenosine competition). The settings on record: ratio of A2 Ki to A1 Ki.

The target in assay [2] is T2, Adenosine A-1 receptor.

T1 sequence (P30543 whole entry): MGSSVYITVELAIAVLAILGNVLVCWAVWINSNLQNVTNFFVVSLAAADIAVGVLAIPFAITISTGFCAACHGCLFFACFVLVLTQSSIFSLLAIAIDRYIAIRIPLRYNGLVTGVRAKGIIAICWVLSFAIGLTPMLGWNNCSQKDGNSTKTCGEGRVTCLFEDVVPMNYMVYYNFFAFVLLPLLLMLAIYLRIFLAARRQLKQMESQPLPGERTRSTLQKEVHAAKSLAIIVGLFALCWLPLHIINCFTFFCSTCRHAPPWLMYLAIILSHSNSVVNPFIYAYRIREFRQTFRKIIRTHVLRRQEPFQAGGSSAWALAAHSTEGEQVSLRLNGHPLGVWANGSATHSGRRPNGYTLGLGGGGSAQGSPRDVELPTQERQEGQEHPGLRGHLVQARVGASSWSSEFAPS

In the case of `CCCn1c(=O)c2nc(C3CCc4ccccc4C3)[nH]c2n(CCC)c1=O` (stereo not shown) [1,3-Dipropyl-8-(1,2,3,4-tetrahydronaphthalen-2-yl)-3,9-dihydropurine-2,6-dione], the negative-log Ki (pKi) on adenosine A-2 receptors is 4.99. Still for that read-out and setting: next, `CCCn1c(=O)c2[nH]c([C@@H]3CCC[C@H]3c3ccccc3)nc2n(CCC)c1=O` (relative stereo) [8-(trans-2-Phenylcyclopentyl)-1,3-dipropyl-3,9-dihydropurine-2,6-dione]: 5.57. Consider `CCCn1c(=O)c2[nH]c(-c3ccc(OCC(=O)NCCN)cc3)nc2n(CCC)c1=O` [XAC], for which, in the assay with adenosine receptor, the “potency in antagonizing effects of adenosine analogs on heart rate vs blood pressure” value was “much more potent in antagonizing the effects of adenosine analogs on heart rate than on blood pressure”. In the case of `CCCn1c(=O)c2[nH]c(-c3ccc(OCC(=O)O)cc3)nc2n(CCC)c1=O` [XCC], the adenosine receptor selectivity entry in the assay on A-1 receptors is “adenosine receptor nonselective”.

Consider `CCCn1c(=O)c2nc(CC(C)c3ccccc3)[nH]c2n(CCC)c1=O` (stereo not shown) [8-(2-Phenylpropyl)-1,3-dipropyl-3,9-dihydropurine-2,6-dione], for which, at Adenosine A-1 receptor [1], the A2/A1 came out at 18. The negative-log Ki (pKi) was 7.03 at Adenosine A-1 receptor [2] and 5.76 at adenosine A-2 receptors.
